What was measured:
[1] = biological target: T1, Prostaglandin G/H synthase 2 (Mus musculus, UniProt Q05769)
T1 sequence (Q05769 whole entry): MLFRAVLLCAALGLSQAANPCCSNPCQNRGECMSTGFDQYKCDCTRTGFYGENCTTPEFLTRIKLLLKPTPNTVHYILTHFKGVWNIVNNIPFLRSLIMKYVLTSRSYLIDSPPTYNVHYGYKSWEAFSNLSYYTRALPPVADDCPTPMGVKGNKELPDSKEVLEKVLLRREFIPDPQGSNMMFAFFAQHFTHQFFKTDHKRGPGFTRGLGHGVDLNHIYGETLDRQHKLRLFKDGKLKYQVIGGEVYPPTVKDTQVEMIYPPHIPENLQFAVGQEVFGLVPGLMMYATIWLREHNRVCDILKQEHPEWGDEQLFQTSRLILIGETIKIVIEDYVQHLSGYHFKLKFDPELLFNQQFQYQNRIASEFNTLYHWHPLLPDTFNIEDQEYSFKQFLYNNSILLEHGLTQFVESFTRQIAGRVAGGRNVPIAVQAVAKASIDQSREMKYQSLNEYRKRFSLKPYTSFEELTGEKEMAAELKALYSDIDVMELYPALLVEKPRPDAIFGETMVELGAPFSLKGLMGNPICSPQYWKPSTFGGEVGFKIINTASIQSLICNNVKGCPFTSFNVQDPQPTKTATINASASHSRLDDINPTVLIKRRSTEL
Description: IC50 value against Prostaglandin G/H synthase 2 of murine J774A.1 cell line

[2] = biological target: Prostaglandin G/H synthase 1 (Homo sapiens, UniProt P23219); assay: IC50 value against Prostaglandin G/H synthase 1 of human platelet rich plasma; type: cell-free
[3] = biological target: T2, Prostaglandin G/H synthase 1 (Ovis aries, UniProt P05979); assay: IC50 value against ovine Prostaglandin G/H synthase 1
T2 sequence (P05979 whole entry): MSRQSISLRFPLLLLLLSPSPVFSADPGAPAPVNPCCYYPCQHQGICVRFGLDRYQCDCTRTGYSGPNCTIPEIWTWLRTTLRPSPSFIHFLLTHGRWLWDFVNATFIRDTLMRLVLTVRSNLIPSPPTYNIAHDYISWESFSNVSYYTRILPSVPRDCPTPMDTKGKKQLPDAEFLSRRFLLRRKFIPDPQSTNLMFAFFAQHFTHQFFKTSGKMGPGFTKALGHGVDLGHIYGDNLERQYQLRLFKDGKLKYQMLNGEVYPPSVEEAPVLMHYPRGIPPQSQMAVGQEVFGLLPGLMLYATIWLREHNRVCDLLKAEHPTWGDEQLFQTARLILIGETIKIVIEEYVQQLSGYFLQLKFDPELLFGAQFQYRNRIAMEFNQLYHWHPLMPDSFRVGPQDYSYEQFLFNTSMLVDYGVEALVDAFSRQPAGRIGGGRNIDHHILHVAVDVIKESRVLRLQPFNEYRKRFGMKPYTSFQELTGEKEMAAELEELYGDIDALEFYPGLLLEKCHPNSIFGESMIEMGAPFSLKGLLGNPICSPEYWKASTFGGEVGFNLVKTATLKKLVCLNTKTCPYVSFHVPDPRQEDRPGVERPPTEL

[4] = biological target: T3, Prostaglandin G/H synthase 2 (Homo sapiens, UniProt P35354); assay: Inhibition of recombinant human prostaglandin G/H synthase 2 (COX-2)
T3 sequence (P35354 whole entry): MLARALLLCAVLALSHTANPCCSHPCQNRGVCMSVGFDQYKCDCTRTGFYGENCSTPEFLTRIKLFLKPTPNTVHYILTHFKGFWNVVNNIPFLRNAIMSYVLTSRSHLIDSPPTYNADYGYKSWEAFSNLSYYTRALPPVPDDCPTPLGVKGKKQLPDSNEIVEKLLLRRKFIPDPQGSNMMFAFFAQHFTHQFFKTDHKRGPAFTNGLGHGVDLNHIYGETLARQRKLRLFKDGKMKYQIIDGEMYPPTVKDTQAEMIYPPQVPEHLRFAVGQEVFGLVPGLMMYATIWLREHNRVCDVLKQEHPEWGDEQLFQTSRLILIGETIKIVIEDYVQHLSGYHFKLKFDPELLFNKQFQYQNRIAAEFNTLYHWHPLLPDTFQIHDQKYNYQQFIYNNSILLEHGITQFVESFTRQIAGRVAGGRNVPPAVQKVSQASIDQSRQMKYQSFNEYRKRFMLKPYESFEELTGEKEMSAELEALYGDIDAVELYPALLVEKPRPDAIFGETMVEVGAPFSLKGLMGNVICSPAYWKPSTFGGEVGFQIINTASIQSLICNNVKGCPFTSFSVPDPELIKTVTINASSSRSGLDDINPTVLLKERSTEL

Chain of Prostaglandin G/H synthase 1 (Homo sapiens, UniProt P23219) (P23219 whole entry): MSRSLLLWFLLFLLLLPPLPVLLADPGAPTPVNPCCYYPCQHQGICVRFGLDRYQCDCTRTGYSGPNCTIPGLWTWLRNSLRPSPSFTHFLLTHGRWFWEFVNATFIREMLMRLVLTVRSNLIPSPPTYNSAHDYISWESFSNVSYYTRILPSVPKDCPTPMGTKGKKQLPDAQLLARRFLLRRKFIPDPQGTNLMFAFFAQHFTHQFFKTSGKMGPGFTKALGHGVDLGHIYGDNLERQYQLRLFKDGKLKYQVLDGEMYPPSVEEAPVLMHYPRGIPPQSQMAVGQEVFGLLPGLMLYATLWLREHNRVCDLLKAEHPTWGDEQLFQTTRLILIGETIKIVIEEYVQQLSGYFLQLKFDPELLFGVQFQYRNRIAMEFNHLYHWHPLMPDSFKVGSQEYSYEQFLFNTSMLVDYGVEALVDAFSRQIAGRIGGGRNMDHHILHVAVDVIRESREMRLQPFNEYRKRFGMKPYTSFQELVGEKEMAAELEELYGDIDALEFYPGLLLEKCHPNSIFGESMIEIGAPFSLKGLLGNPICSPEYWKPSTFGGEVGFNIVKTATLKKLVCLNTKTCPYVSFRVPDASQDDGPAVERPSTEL

| Structure (SMILES) | IC50 [1] | IC50 [2] | IC50 [3] | IC50 [4] |
| --- | --- | --- | --- | --- |
| CC(C)(C)c1cc(-c2nc(=O)s[nH]2)cc(C(C)(C)C)c1O | 0.018 µM | 0.43 µM | 83 µM | 1.1 µM |
| CCSc1nnc(-c2cc(C(C)C)c(O)c(C(C)C)c2)s1 | 1.3 µM | > 20 µM | > 20 µM | > 20 µM |
| CC(C)(C)c1cc(-c2nnc(NC#N)o2)cc(C(C)(C)C)c1O | 0.39 µM | 5.8 µM | – | 11 µM |
| CC(C)(C)c1cc(-c2nnc(SCc3ccccc3)s2)cc(C(C)(C)C)c1O | > 20 µM | > 20 µM | > 20 µM | > 20 µM |
| COc1nc(-c2cc(C(C)(C)C)c(O)c(C(C)(C)C)c2)ns1 | – | – | 24 µM | 100 µM |
| CC(C)(C)c1cc(-c2noc(NC#N)n2)cc(C(C)(C)C)c1O | 1.4 µM | 1.2 µM | 51 µM | 0.064 µM |
| COc1c(C(C)(C)C)cc(-c2nnc(S)s2)cc1C(C)(C)C | 0.3 µM | > 20 µM | > 20 µM | 1.5 µM |
| CC(C)Sc1nnc(-c2cc(C(C)C)c(O)c(C(C)C)c2)s1 | – | – | > 20 µM | > 20 µM |
| CCSc1nnc(-c2cc(C(C)(C)C)c(O)c(C(C)(C)C)c2)o1 | 0.015 µM | 1.9 µM | > 20 µM | 6.5 µM |
| CCSc1nnc(-c2cc(C(C)(C)C)c(O)c(C(C)(C)C)c2)s1 | 0.18 µM | 3.1 µM | 100 µM | 0.14 µM |
| COc1nnc(-c2cc(C(C)(C)C)c(O)c(C(C)(C)C)c2)s1 | – | 0.2 µM | 2.6 µM | 3 µM |
| CC[S+]([O-])c1nnc(-c2cc(C(C)(C)C)c(O)c(C(C)(C)C)c2)s1 (configuration not stated) | 0.23 µM | 14.6 µM | > 20 µM | > 20 µM |
| CC(C)(C)c1cc(-c2nnc(NN)s2)cc(C(C)(C)C)c1O | 3.7 µM | 3.2 µM | 17 µM | 1.3 µM |
| C[S+]([O-])c1nnc(-c2cc(C(C)(C)C)c(O)c(C(C)(C)C)c2)s1 (configuration not stated) | – | > 20 µM | > 20 µM | > 20 µM |
| CSc1nnc(-c2nc(C(C)(C)C)c(O)c(C(C)(C)C)n2)s1 | 0.026 µM | 0.2 µM | 0.097 µM | – |
| CC(C)(C)c1cc(-c2nsc(N)n2)cc(C(C)(C)C)c1O | – | – | > 20 µM | > 20 µM |
| CC(=O)Nc1nc(-c2cc(C(C)(C)C)c(O)c(C(C)(C)C)c2)ns1 | – | – | > 20 µM | > 20 µM |
| CSc1nnc(-c2cc(C(C)(C)C)c(O)c(C(C)(C)C)c2)s1 | 0.009 µM | 0.18 µM | 0.51 µM | 0.15 µM |
| CC(C)(C)c1cc(-c2nsc(N=C(N)N)n2)cc(C(C)(C)C)c1O | > 20 µM | 1.7 µM | 24 µM | 27 µM |
| CC(C)(C)c1cc(-c2nnc(S)o2)cc(C(C)(C)C)c1O | 0.92 µM | > 20 µM | > 20 µM | 47 µM |
| CC(C)(C)c1cc(-c2nnc(O)o2)cc(C(C)(C)C)c1O | > 20 µM | 3.2 µM | > 20 µM | > 20 µM |
| COc1c(C(C)(C)C)cc(-c2nnc(SC)s2)cc1C(C)(C)C | 0.012 µM | 0.77 µM | 5.8 µM | 0.34 µM |
| CC(C)(C)c1cc(-c2nnc(O)s2)cc(C(C)(C)C)c1O | 0.24 µM | 4.1 µM | > 20 µM | > 20 µM |
| CCN(CC)CCSc1nnc(-c2cc(C(C)(C)C)c(O)c(C(C)(C)C)c2)s1 | > 20 µM | > 20 µM | > 20 µM | 19 µM |
| CC(C)(C)c1cc(-c2nnc(S)s2)cc(C(C)(C)C)c1O | 0.35 µM | > 20 µM | 20 µM | – |
| CC(C)(C)c1cc(-c2nsc(NS(C)(=O)=O)n2)cc(C(C)(C)C)c1O | – | – | > 20 µM | > 20 µM |
| CSc1nnc(-c2cc(C(C)(C)C)c(O)c(C(C)(C)C)c2)o1 | 0.14 µM | 1.2 µM | 12 µM | – |

Reference: ChEMBL document CHEMBL1132622, “Synthesis, structure-activity relationships, and in vivo evaluations of substituted di-tert-butylphenols as a novel class of potent, selective, and orally active cyclooxygenase-2 inhibitors. 2. 1,3,4- and 1,2,4-thiadiazole series” (J Med Chem, 1999)
